Laboratory results published in the NIST ThermoML archive (doi:10.1016/j.jct.2012.11.011).
Numbers after ± are expanded uncertainties.

Details: Liquid, Vibrating tube method

| mass density (288.15 K, 100 kPa) [kg/m3] | mass density (288.15 K, 5000 kPa) [kg/m3] | mass density (288.15 K, 10000 kPa) [kg/m3] | mass density (288.15 K, 20000 kPa) [kg/m3] | mass density (288.15 K, 30000 kPa) [kg/m3] | mass density (288.15 K, 40000 kPa) [kg/m3] | mass density (298.15 K, 100 kPa) [kg/m3] | mass density (298.15 K, 5000 kPa) [kg/m3] | mass density (298.15 K, 10000 kPa) [kg/m3] | mass density (298.15 K, 20000 kPa) [kg/m3] | mass density (298.15 K, 30000 kPa) [kg/m3] | mass density (298.15 K, 40000 kPa) [kg/m3] | mass density (308.15 K, 100 kPa) [kg/m3] | mass density (308.15 K, 5000 kPa) [kg/m3] | mass density (308.15 K, 10000 kPa) [kg/m3] | mass density (308.15 K, 20000 kPa) [kg/m3] | mass density (308.15 K, 30000 kPa) [kg/m3] | mass density (308.15 K, 40000 kPa) [kg/m3] | SMILES |
| --- | --- | --- | --- | --- | --- | --- | --- | --- | --- | --- | --- | --- | --- | --- | --- | --- | --- | --- |
| 733.6 ± 0.3 | 737.2 ± 0.3 | 740.7 ± 0.4 | 747.2 ± 0.5 | 753.2 ± 0.5 | 758.9 ± 0.6 | 726 ± 0.3 | 730.2 ± 0.3 | 733.5 ± 0.4 | 740.3 ± 0.5 | 746.5 ± 0.5 | 752.2 ± 0.6 | 718.3 ± 0.3 | 722.4 ± 0.3 | 726.2 ± 0.4 | 733.4 ± 0.5 | 740 ± 0.5 | 745.9 ± 0.6 | CCCCCCCCCC [decane] |
| 980.3 ± 0.2 | 984.5 ± 0.2 | 988.6 ± 0.2 | 996.3 ± 0.2 | 1003.6 ± 0.2 | 1010.5 ± 0.2 | 968.9 ± 0.3 | 973.8 ± 0.3 | 977.8 ± 0.2 | 986 ± 0.2 | 993.6 ± 0.2 | 1000.8 ± 0.2 | 957.7 ± 0.3 | 962.4 ± 0.3 | 967.1 ± 0.3 | 975.7 ± 0.3 | 983.8 ± 0.2 | 991.3 ± 0.2 | CCOC(=O)OCC [diethyl carbonate] |
| 1076.5 ± 0.4 | 1080.6 ± 0.4 | 1084.8 ± 0.4 | 1092.8 ± 0.4 | 1100.3 ± 0.5 | 1107.5 ± 0.5 | 1062.9 ± 0.4 | 1068 ± 0.4 | 1072.1 ± 0.4 | 1080.5 ± 0.4 | 1088.5 ± 0.4 | 1095.9 ± 0.5 | 1049.4 ± 0.3 | 1054.6 ± 0.4 | 1059.4 ± 0.4 | 1068.3 ± 0.4 | 1076.7 ± 0.4 | 1084.5 ± 0.5 | COC(=O)OC [dimethyl carbonate] |
| 706.6 ± 0.3 | 710.9 ± 0.4 | 714.7 ± 0.4 | 721.7 ± 0.5 | 728.1 ± 0.6 | 734.3 ± 0.7 | 698.6 ± 0.3 | 703.4 ± 0.4 | 707 ± 0.4 | 714.6 ± 0.5 | 721.4 ± 0.6 | 727.7 ± 0.7 | 690.5 ± 0.3 | 695 ± 0.4 | 699.4 ± 0.4 | 707.3 ± 0.5 | 714.5 ± 0.6 | 720.8 ± 0.7 | CCCCCCCC [octane] |
